In PubChem BioAssay (NCI):
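Five compound concentrations were applied to cells in 96-well plates for 48 hours; endpoints were derived by simple linear interpolation of the resulting dose-response curve. Here, GI50 denotes the concentration required for 50% inhibition of growth. TGI marks complete inhibition of growth.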

Legend:
Experiment in all cases: growth of human tumour cells (NCI), 48 h
[1] = tested on: SNB-19 CNS
[2] = tested on: UACC-257 melanoma
[3] = tested on: OVCAR-4 ovarian
[4] = tested on: SF-268 CNS
[5] = tested on: M14 melanoma
[6] = tested on: COLO 205 colon
[7] = tested on: SK-OV-3 ovarian
[8] = tested on: SK-MEL-5 melanoma
[9] = tested on: SK-MEL-28 melanoma
[10] = tested on: PC-3 prostate

Row | SMILES | TGI [1] | TGI [2] | TGI [3] | TGI [4] | TGI [5] | TGI [6] | TGI [7] | TGI [8] | TGI [9] | GI50 [1] | GI50 [2] | GI50 [3] | GI50 [4] | GI50 [10] | TGI [10] | GI50 [5] | GI50 [6] | GI50 [7] | GI50 [8] | GI50 [9]
1 | O=C(O)CCC(NC(=O)c1ccccc1)C(=O)O (centres undefined) | > 100 µM | > 100 µM | > 100 µM | > 100 µM | > 100 µM | > 100 µM | > 100 µM | > 100 µM | > 100 µM | – | – | – | – | – | – | – | – | – | – | –
2 | CCN1Cc2c(ccc(F)c2C#N)O[C@@H](C)CNC(=O)c2c(N)nn3ccc1nc23 | 39.3 µM | 16.7 µM | > 100 µM | 20.3 µM | 11.1 µM | 3.74 µM | 15.3 µM | 15.2 µM | 11.5 µM | 8.93 µM | 2.63 µM | 8.44 µM | 3.26 µM | 1.64 µM | 26.6 µM | 0.678 µM | 0.815 µM | 1.66 µM | 3.46 µM | 1.82 µM
3 | COc1ccc(C(=O)/C=C/c2ccc3c(c2)OCO3)c(OCc2ccccc2)c1 | > 100 µM | > 100 µM | > 61 µM | > 100 µM | > 100 µM | > 100 µM | > 100 µM | > 100 µM | > 100 µM | – | – | – | – | – | > 100 µM | – | – | – | – | –
4 | COC(=O)[C@]12CC=C3O[C@@H]4OC5(CCCCC5)O[C@@H]4C3[C@@H]1C(=O)CCC2=O (some centres undefined) | > 100 µM | > 100 µM | > 100 µM | > 100 µM | > 100 µM | > 100 µM | > 100 µM | > 100 µM | > 100 µM | – | – | – | – | – | – | – | – | – | – | –
5 | COc1ccc(S(=O)(=O)Nc2cc(/C=C\c3cc(OC)c(OC)c(OC)c3)ccc2OC)cc1 | > 100 µM | 93.4 µM | > 100 µM | > 100 µM | > 100 µM | 0.158 µM | 38.3 µM | 0.778 µM | > 100 µM | 0.352 µM | 2.98 µM | 0.581 µM | 0.401 µM | 0.124 µM | > 100 µM | 0.103 µM | 0.0383 µM | 0.0963 µM | 0.0488 µM | 0.143 µM
6 | COc1cccc2c1C(=O)c1c(O)c3c(c(O)c1C2=O)C[C@@](O)(C(=O)CO)C[C@@H]3O[C@H]1C[C@H](N)[C@@H](O)[C@H](C)O1 | 21.7 µM | 1.82 µM | 5.87 µM | 2.08 µM | 1.16 µM | 1.23 µM | 31.6 µM | 0.623 µM | 1.35 µM | 0.127 µM | 0.431 µM | 0.546 µM | 0.196 µM | 0.551 µM | 5.32 µM | 0.281 µM | 0.313 µM | 0.318 µM | – | 0.351 µM
7 | Cc1c(C(=O)CC(=O)C(=O)Nc2ccc(Cl)cc2)[n+](=O)c2ccccc2n1[O-] | > 100 µM | > 100 µM | > 100 µM | > 100 µM | > 100 µM | > 100 µM | > 100 µM | > 100 µM | > 100 µM | – | – | – | – | – | – | – | – | – | – | –
8 | CN(C)C=[N+]=[N-] | > 100 µM | > 100 µM | > 100 µM | > 100 µM | > 100 µM | > 100 µM | > 100 µM | > 100 µM | – | – | – | – | – | – | – | – | – | – | – | –
9 | C/C=C1/CCC2c3[nH]c4ccccc4c3CCN2C1 (centres undefined) | > 100 µM | > 100 µM | > 100 µM | > 100 µM | 33.2 µM | – | > 100 µM | > 100 µM | > 100 µM | – | – | – | – | – | – | – | – | – | – | –
10 | CC(C)c1c(O)ccc2c1CCC1C(C)(C)CCCC21C (centres undefined) | 32.3 µM | 32.2 µM | 32.9 µM | 35.5 µM | 30.2 µM | 32 µM | 33.4 µM | 29.9 µM | 38.1 µM | – | – | – | – | – | 31.4 µM | – | – | – | – | –
11 | COc1ccc(CC(=O)NCCc2ccc(OC)c(OC)c2)cc1Br | > 100 µM | > 100 µM | > 100 µM | > 100 µM | – | > 100 µM | > 100 µM | – | > 100 µM | – | – | – | – | – | – | – | – | – | – | –
12 | CC1=NN(C(=O)CC(=O)NC(=O)CC(=O)Nc2ccccc2F)C(=O)C1N=Nc1ccc([N+](=O)[O-])cc1 (centres undefined) | > 100 µM | 76.1 µM | > 100 µM | > 100 µM | > 100 µM | 69.2 µM | > 100 µM | > 100 µM | > 100 µM | – | – | – | – | – | – | – | – | – | – | –
13 | CCCCCCCCCCC(C(O)c1ccccc1)N1CCCCC1 (centres undefined) | 3.95 µM | 4.28 µM | 13.2 µM | 4.73 µM | 3.47 µM | 2.93 µM | 7.82 µM | 3.06 µM | 3.32 µM | 1.84 µM | 2.02 µM | 3.66 µM | 1.51 µM | 3.43 µM | 12.4 µM | 1.87 µM | 1.54 µM | 2.59 µM | 1.69 µM | 1.83 µM
14 | O=C(NCCCCCCNC(=O)OCCSCCn1cc(C(=O)NC(=O)OCc2ccccc2)c(=O)[nH]c1=O)OCCSCCn1cc(C(=O)NC(=O)OCc2ccccc2)c(=O)[nH]c1=O | > 100 µM | > 100 µM | > 100 µM | – | > 100 µM | > 100 µM | – | > 100 µM | – | – | – | – | – | – | – | – | – | – | – | –
15 | CN1C(=O)C(CC(=O)O)NC1=S (centres undefined) | > 100 µM | > 100 µM | – | > 100 µM | > 100 µM | > 100 µM | > 100 µM | > 100 µM | > 100 µM | – | – | – | – | – | > 100 µM | – | – | – | – | –
16 | O=C(O)CCSC(=O)Nc1ccccc1F | > 100 µM | – | > 100 µM | > 100 µM | > 100 µM | > 100 µM | – | – | > 100 µM | – | – | – | – | – | – | – | – | – | – | –
17 | CCCC/C=C1\CCC(C)(CN(C)C)C1=O (centres undefined) | – | > 100 µM | > 100 µM | > 100 µM | > 100 µM | – | – | > 100 µM | > 100 µM | – | – | – | – | – | – | – | – | – | – | –
18 | COc1ccc(S(=O)(=O)N/N=C/c2cc(I)cc([N+](=O)[O-])c2O)cc1OC | 88.3 µM | > 100 µM | 70.3 µM | – | > 100 µM | > 100 µM | 92.2 µM | 38.3 µM | – | – | – | – | – | – | – | – | – | – | – | –
19 | COC(=O)NN=C1C(C)(C)C(=O)C1(C)C | – | > 100 µM | – | > 100 µM | > 100 µM | > 100 µM | > 100 µM | > 100 µM | > 100 µM | – | – | – | – | – | – | – | – | – | – | –
